± gives the expanded uncertainty stated by the source.
How the values were obtained:
[1] = 100 kPa, Liquid; for speed of sound: Frequency=3 MHz, Single path-length method; for mass density: Vibrating tube method
[2] = mn = molality of the nth substance listed, in mol/kg; details: 100 kPa, Liquid; for speed of sound: Frequency=3 MHz, Single path-length method; for mass density: Vibrating tube method

CCCCn1cc[n+](C)c1.F[B-](F)(F)F [1-butyl-3-methylimidazolium tetrafluoroborate]
[1]
Details | mass density [kg/m3] | speed of sound [m/s]
288.15 K | 1209.05 ± 0.77 | 1591 ± 1.8
293.15 K | 1205.5 ± 0.77 | 1578.9 ± 1.8
298.15 K | 1201.96 ± 0.76 | 1566.9 ± 1.8
303.15 K | 1198.42 ± 0.76 | 1555.1 ± 1.8
308.15 K | 1194.87 ± 0.75 | 1543.4 ± 1.8

CCCCn1cc[n+](C)c1.F[B-](F)(F)F [1-butyl-3-methylimidazolium tetrafluoroborate] + [Cl-].[Li+]
[2], m2 = 0
Details | mass density [kg/m3] | speed of sound [m/s]
288.15 K | 1209.05 ± 0.77 | 1591 ± 1.8
293.15 K | 1205.5 ± 0.77 | 1578.9 ± 1.8
298.15 K | 1201.96 ± 0.76 | 1566.9 ± 1.8
303.15 K | 1198.42 ± 0.76 | 1555.1 ± 1.8
308.15 K | 1194.87 ± 0.75 | 1543.4 ± 1.8

[Cl-].[Li+] [lithium chloride] + CCCCn1cc[n+](C)c1.F[B-](F)(F)F
[2]
Details | mass density, 288.15 K [kg/m3] | mass density, 293.15 K [kg/m3] | mass density, 298.15 K [kg/m3] | mass density, 303.15 K [kg/m3] | mass density, 308.15 K [kg/m3] | speed of sound, 288.15 K [m/s] | speed of sound, 293.15 K [m/s] | speed of sound, 298.15 K [m/s] | speed of sound, 303.15 K [m/s] | speed of sound, 308.15 K [m/s]
m1 = 0.0999 | 1211.1 ± 0.77 | 1207.56 ± 0.77 | 1204.03 ± 0.76 | 1200.53 ± 0.76 | 1196.98 ± 0.75 | 1595.5 ± 1.8 | 1583.3 ± 1.8 | 1571.2 ± 1.8 | 1559.4 ± 1.8 | 1547.7 ± 1.8
m1 = 0.1499 | 1212.17 ± 0.77 | 1208.61 ± 0.77 | 1205.08 ± 0.76 | 1201.61 ± 0.76 | 1198.07 ± 0.75 | 1597.7 ± 1.8 | 1585.4 ± 1.8 | 1573.3 ± 1.8 | 1561.4 ± 1.8 | 1549.7 ± 1.8
m1 = 0.2 | 1213.24 ± 0.78 | 1209.68 ± 0.77 | 1206.14 ± 0.76 | 1202.69 ± 0.76 | 1199.16 ± 0.75 | 1599.7 ± 1.8 | 1587.3 ± 1.8 | 1575.2 ± 1.8 | 1563.3 ± 1.8 | 1551.5 ± 1.8
m1 = 0.2501 | 1214.33 ± 0.78 | 1210.73 ± 0.77 | 1207.22 ± 0.77 | 1203.79 ± 0.76 | 1200.27 ± 0.76 | 1601.7 ± 1.8 | 1589.2 ± 1.8 | – | 1565.1 ± 1.8 | 1553.2 ± 1.8
m1 = 0.3003 | 1215.46 ± 0.78 | 1211.88 ± 0.77 | 1208.31 ± 0.77 | 1204.94 ± 0.76 | 1201.37 ± 0.76 | 1603.5 ± 1.8 | 1591 ± 1.8 | 1578.7 ± 1.8 | 1566.7 ± 1.8 | 1554.9 ± 1.8
m1 = 0.3498 | 1216.56 ± 0.78 | 1212.93 ± 0.77 | 1209.36 ± 0.77 | 1206.04 ± 0.76 | 1202.5 ± 0.76 | 1605.3 ± 1.8 | 1592.6 ± 1.8 | 1580.3 ± 1.8 | 1568.2 ± 1.8 | 1556.2 ± 1.8

From the NIST ThermoML archive (doi:10.1016/j.jct.2017.02.004)
